Reference: article PMC9607599, “Dual Targeting Ligands—Histamine H3 Receptor Ligands with Monoamine Oxidase B Inhibitory Activity—In Vitro and In Vivo Evaluation” (Pharmaceutics, 2022)
Where “and” joins values, the source holds several entries; their conditions need not be identical. Identical values can stand only once. Like-named read-outs stand apart in the source and are kept apart here.

Tests used:
[1] = tested on: astrocyte cell line isolated from human cerebral cortex; experiment: MTT cell viability test on human astrocytes; format: cell-based; conditions: Astrocyte, human astrocytes, MTT
Experimental: The studies were performed on a commercially-available astrocyte cell line isolated from human cerebral cortex (ScienCell Research Laboratories, San Diego, CA, USA; Cat no. 1800). The cells (passage 7–8) were seeded into a 96-well plate at an amount of 10,000 cells/well and kept in accordance with the ScienCell Research Laboratories’ protocol, i.e., in astrocyte medium supplemented with 2% fetal bovine serum, 10% astrocyte growth supplement and 1% penicillin/streptomycin solution, in an atmosphere with 5% CO2 at 37 °C. The cells were allowed to grow for 24 h and then treated with increasing concentrations of test compounds (0.01–0.25 mg/mL) for 24 and 72 h. Astrocytes in the medium on each plate (regardless of the factors tested) were used as a positive control.
The viability of the astrocyte cell line was determined calorimetrically using 3-(4,5-dimethylthazol-2-yl)-2,5-diphenyltetrazolium bromide (MTT; Sigma-Aldrich Chemical Co. Ltd., Saint Louis, MO, USA) as described earlier. […] After the incubation time (24 or 72 h) with examined drugs, 50 μL MTT solution (1 mg/mL) was added to each well of the plate for another 4 h. The method is based on the reduction of a yellow tetrazolium salt (MTT) into purple formazan crystals by mitochondrial succinate-tetrazolium reductase system which is metabolically active in viable cells. At the end of the experiment, the cells were treated with 100 μL dimethyl sulphoxide, which enabled the release of the reaction product.
The absorbance was measured at 570 nm using a BioTek EL×800 microplate reader (BioTek, Winooski, Vermont, USA) and results were expressed as a percentage of the absorbance measured in control cells. The obtained values were plotted against different concentrations of each compound to calculate the viability inhibition concentration at 50% (IC50) using GraphPad Prism 6.07 (GraphPad Software, Inc., San Diego, CA, USA). The experiment was repeated in quadruplicate.
For the cytotoxicity assessment in the MTT assays, each test drug was used at 8 concentrations (range: 0.01–0.25 mg/mL).

Wistar rats = experiment: feeding behavior (food, water, urine) after sub-chronic administration in metabolic cages; format: in vivo, rat; conditions: 3 mg/kg s.c. for 6 days, treatment period value (vs pre-treatment)
Experimental: The compound 13 has been examined for its in vivo activity in rats. Male Wistar rats weighing 180–240 g at the beginning of the experiments were used for the study. Animals were individually housed in standard cages with liquid and food available ad libitum, under an artificial reversed 12-h light–dark cycle with light off at 7 a.m., temperature 21–22 °C and 60–65% humidity.
Before the start of the experiments, the animals were habituated for 7 days to the conditions in the animal facility. Pharmacological treatments were carried out in the dark phase of the cycle. During the drug administration, the rats were kept in metabolic cages (Tecniplast, Italy). After an additional one day adaptation, there was a 3-day pre-treatment phase.
(§1) The compound 13 was given to intact Wistar rats to verify its impact on the metabolism of biogenic amines in the brain (cerebral amines and their metabolites concentrations as well as activities of metabolizing enzymes). […] Both drugs (3 mg/kg body mass, dissolved in 0.9% NaCl) were given subcutaneously for 6 consecutive days. Control rats were injected with 200 μL of 0.9% NaCl.
The volumes of consumed food and water, as well as urine excretion, were recorded daily and expressed in g or mL per 100 g of body mass or mL per 24 h, respectively.
The final results are given as means with SEM calculated for each 24-h period, computed from 3-day (pre-treatment phase) or 6-day (pharmacological treatment) monitoring. All experimental procedures were undertaken according to EU directives and local ethical regulations.

[2] = target: T1, MAO A in rat cerebral cortex (Rattus norvegicus, UniProt P21396); experiment: MAO A activity in cerebral cortex homogenates after sub-chronic administration (radioassay); format: in vivo; conditions: 3 mg/kg/day s.c. for 6 days
T1 construct: from tissue; host or cells: cerebral cortex homogenate of male Wistar rats
T1 sequence (P21396 1-526): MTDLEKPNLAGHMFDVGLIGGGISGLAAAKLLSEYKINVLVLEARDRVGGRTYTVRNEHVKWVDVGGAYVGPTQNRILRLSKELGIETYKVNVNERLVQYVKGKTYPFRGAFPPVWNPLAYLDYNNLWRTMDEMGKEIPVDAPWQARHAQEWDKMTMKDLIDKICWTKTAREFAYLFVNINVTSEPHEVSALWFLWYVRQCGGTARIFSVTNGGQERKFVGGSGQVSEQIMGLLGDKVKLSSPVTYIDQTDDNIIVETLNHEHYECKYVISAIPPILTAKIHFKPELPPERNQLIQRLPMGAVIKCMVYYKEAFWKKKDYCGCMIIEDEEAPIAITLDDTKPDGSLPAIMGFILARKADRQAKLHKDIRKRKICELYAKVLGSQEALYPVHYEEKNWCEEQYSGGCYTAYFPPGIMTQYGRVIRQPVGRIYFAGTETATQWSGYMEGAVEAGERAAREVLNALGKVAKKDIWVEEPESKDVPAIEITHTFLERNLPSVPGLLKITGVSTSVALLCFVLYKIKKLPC
Experimental: as §1
Tissues were collected and properly prepared for subsequent biochemical analyzes. The brain was quickly removed from the skull and the selected structures (hypothalamus, striatum, cerebral cortex) were dissected according to the method by Glowinsky and Iversen, immediately frozen in liquid nitrogen and kept at −80 °C until assayed.
MAO A and MAO B activities were estimated in cerebral homogenates with radioassays using 5-[2-^14C]-hydroxytryptamine binoxalate (final conc. 200 µM) and β-[ethyl-1-^14C]-phenylethylamine hydrochloride (final conc. 20 µM), as well as specific inhibitors—clorgyline and deprenyl (final conc. 10^−9 M), respectively.
The enzyme activities are expressed as pmol/min/mg protein. Protein concentration was analyzed by Lowry’s method.

[3] = 24 h incubation, read-out: IC50 24 h
[4] = 72 h incubation, read-out: IC50 72 h

Row | Compound | IC50 [1, 3] | IC50 [1, 4] | food consumption (Wistar rats) [g/100 g bw] | urine output (Wistar rats) [mL/24 h] | water consumption (Wistar rats) [mL/100 g bw/24 h] | inhibition at 3 mg/kg ([2]; rat, sc, data not shown) [%] | MAO A activity vs control, in words [2]
1 | CC1CCCN1CCCOc1ccc(C(C)(C)C)cc1.O=C(O)C(=O)O (stereo not drawn) [Compound 13, 1-(3-(4-(tert-Butyl)phenoxy)propyl)-2-methylpyrrolidine hydrogen oxalate] | 230 µM and 84 µg/mL | 142 µM and 52 µg/mL | 8.61 ± 0.11 | 8.90 ± 0.045 | 13.37 ± 0.31 | 12 | 
2 | Clc1ccc(CCCOCCCN2CCCCC2)cc1 [Pitolisant, 3-(4-chlorophenyl)propyl 3-piperidinopropyl ether, reference compound] | 346 µM and 115 µg/mL | 241 µM and 80 µg/mL | 8.95 ± 0.14 | 9.08 ± 0.49 | 14.16 ± 0.43 |  | close to that recorded in control animals
